Results published in ChEMBL document CHEMBL5321222, “N(14)-substituted evodiamine derivatives as dual topoisomerase 1/tubulin-Inhibiting anti-gastrointestinal tumor agents” (Eur J Med Chem, 2023).
pIC50: −log10 of the molar value. Activity calls are given as the source filed them. No cut-off for these calls is given here.

Columns and labels:
[1] = tested on: MGC-803; experiment: Antiproliferative activity against human MGC-803 cells assessed as reduction in cell viability incubated for 72 hrs by MTT assay; format: functional, cell-based; details: MGC-803, 72 h
[2] = tested on: SGC-7901; experiment: Antiproliferative activity against human SGC-7901 cells assessed as reduction in cell viability incubated for 72 hrs by MTT assay; format: functional, cell-based; details: SGC-7901, 72 h
[3] = tested on: SW480; experiment: Antiproliferative activity against human SW480 cells assessed as reduction in cell viability incubated for 72 hrs by MTT assay; format: functional, cell-based; details: SW480, 72 h
[4] = tested on: LoVo; experiment: Antiproliferative activity against human LoVo cells assessed as reduction in cell viability incubated for 72 hrs by MTT assay; format: functional, cell-based
[5] = tested on: GES1; experiment: Antiproliferative activity against human GES1 cells assessed as reduction in cell viability incubated for 72 hrs by MTT assay; format: functional, cell-based; details: GES1, 72 h
[6] = tested on: RKO; experiment: Antiproliferative activity against human RKO cells assessed as reduction in cell viability incubated for 72 hrs by MTT assay; format: functional, cell-based
[7] = tested on: HGC-27; experiment: Antiproliferative activity against human HGC-27 cells assessed as reduction in cell viability incubated for 72 hrs by MTT assay; format: functional, cell-based; details: HGC-27, 72 h
[8] = target: T1, DNA topoisomerase 1 (Homo sapiens) (UniProt P11387); experiment: Inhibition of topoisomerase 1 (unknown origin) at 200 uM using PBR322 DNA as substrate incubated for 30 mins by agarose gel electrophoresis
T1 sequence (whole entry): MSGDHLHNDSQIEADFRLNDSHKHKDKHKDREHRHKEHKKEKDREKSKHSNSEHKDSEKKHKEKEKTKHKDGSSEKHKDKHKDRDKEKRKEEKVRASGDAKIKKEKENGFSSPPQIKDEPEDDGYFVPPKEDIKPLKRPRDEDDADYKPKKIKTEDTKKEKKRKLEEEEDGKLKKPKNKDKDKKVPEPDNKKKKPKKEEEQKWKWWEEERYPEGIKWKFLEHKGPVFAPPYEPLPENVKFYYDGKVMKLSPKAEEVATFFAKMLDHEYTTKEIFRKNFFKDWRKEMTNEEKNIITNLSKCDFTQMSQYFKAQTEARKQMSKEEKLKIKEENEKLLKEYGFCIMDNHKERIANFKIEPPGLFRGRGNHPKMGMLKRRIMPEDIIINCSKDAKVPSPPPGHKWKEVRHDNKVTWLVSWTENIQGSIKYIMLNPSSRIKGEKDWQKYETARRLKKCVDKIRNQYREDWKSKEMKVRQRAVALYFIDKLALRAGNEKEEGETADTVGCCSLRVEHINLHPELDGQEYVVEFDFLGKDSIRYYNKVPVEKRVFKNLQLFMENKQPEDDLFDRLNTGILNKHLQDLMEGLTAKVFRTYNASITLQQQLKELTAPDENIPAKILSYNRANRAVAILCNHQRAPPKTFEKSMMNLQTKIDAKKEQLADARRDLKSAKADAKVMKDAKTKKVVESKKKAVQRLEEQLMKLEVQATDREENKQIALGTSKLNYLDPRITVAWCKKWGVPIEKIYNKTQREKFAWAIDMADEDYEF

[9] = tested on: MGC-803; experiment: Induction of apoptosis in human MGC-803 cells assessed as late apoptotic cells at 0.2 uM incubated for 24 hrs by propidium iodide and Annexin V/FITC staining based flow cytometry assay (reference value: 4.10%); format: functional
[10] = tested on: RKO; experiment: Antiproliferative activity against human RKO cells assessed as reduction in cell viability at 90 nM incubated for 24 hrs by BrdU staining based fluorescence microscopic analysis; format: functional
[11] = tested on: MGC-803; experiment: Induction of apoptosis in human MGC-803 cells assessed as early apoptotic cells at 0.2 uM incubated for 24 hrs by propidium iodide and Annexin V/FITC staining based flow cytometry assay (reference value: 1.85%); format: functional
[12] = tested on: RKO; experiment: Induction of morphological changes in human RKO cells at 0.2 uM incubated for 24 hrs by Giemsa staining based micrscopic analysis; format: functional, cell-based
[13] = tested on: MGC-803; experiment: Antiproliferative activity against human MGC-803 cells assessed as reduction in cell viability at 90 nM incubated for 24 hrs by BrdU staining based fluorescence microscopic analysis; format: functional
[14] = tested on: MGC-803; experiment: Induction of morphological changes in human MGC-803 cells at 0.2 uM incubated for 24 hrs by Giemsa staining based micrscopic analysis; format: functional, cell-based
[15] = tested on: RKO; experiment: Induction of cell cycle arrest in human RKO cells assessed as accumulation of cells at G2/M phase at 0.2 uM incubated for 24 hrs by propidium iodide staining based flow cytometry analysis; format: functional
[16] = tested on: RKO; experiment: Induction of apoptosis in human RKO cells assessed as early apoptotic cells at 0.2 uM incubated for 24 hrs by propidium iodide and Annexin V/FITC staining based flow cytometry assay (reference value: 0.16%); format: functional
[17] = tested on: RKO; experiment: Induction of apoptosis in human RKO cells assessed as late apoptotic cells at 0.2 uM incubated for 24 hrs by propidium iodide and Annexin V/FITC staining based flow cytometry assay (reference value: 0.50%); format: functional

Structure (SMILES)	pIC50 [1]	pIC50 [2]	pIC50 [3]	pIC50 [4]	pIC50 [5]	pIC50 [6]	pIC50 [7]	inhibition [8]	Activity [9]	Activity [10]	Activity [11]	Activity [12]	Activity [13]	Activity [14]	Activity [15]	Activity [16]	Activity [17]
O=C1c2ccccc2N(CCC2OCCO2)C2c3[nH]c4ccccc4c3CCN12 (stereo not drawn)	4.80	5.25	< 4.52	< 4.52	< 4.52	< 4.52	< 4.52										
O=C1c2ccccc2N(CC2CC2)C2c3[nH]c4ccccc4c3CCN12 (stereo not drawn)	7.00	6.66	5.74	6.36	6.68	6.38	5.73	Active									
CC(C)N1c2ccccc2C(=O)N2CCc3c([nH]c4ccccc34)C21 (stereo not drawn)	6.89	6.42	5.93	6.27	6.05	6.31	5.64										
C[Si](C)(C)CN1c2ccccc2C(=O)N2CCc3c([nH]c4ccccc34)C21 (stereo not drawn)	5.75	5.61	5.48	5.15	5.37	5.66	< 5.52										
COC(=O)CN1c2ccccc2C(=O)N2CCc3c([nH]c4ccccc34)C21 (stereo not drawn)	< 4.52	5.18	< 4.52	< 4.52	< 4.52	4.63	< 4.52										
COc1cc2c(c(OC)c1OC)-c1ccc(OC)c(=O)cc1[C@@H](NC(C)=O)CC2 [COLCHICINE]	5.10	4.76		6.64					7.63%	Active	6.95%	Active	Active	Active	82.29%	5.3%	5.1%
CC(C)(C)CN1c2ccccc2C(=O)N2CCc3c([nH]c4ccccc34)C21 (stereo not drawn)	6.04	5.92	5.74	5.71	5.77	5.88	< 5.52										
COc1ccc(CN2c3ccccc3C(=O)N3CCc4c([nH]c5ccccc45)C32)cc1 (stereo not drawn)	5.35	5.22	< 4.52	4.71	5.07	5.26	4.75										
Cc1ccc(CN2c3ccccc3C(=O)N3CCc4c([nH]c5ccccc45)C32)cc1 (stereo not drawn)	5.15	5.21	< 4.52	< 4.52	5.01	4.90	< 4.52										
O=C1c2ccccc2N(Cc2ccccc2)C2c3[nH]c4ccccc4c3CCN12 (stereo not drawn)	5.03	4.93	4.88	< 4.52	4.80	5.22	4.97										
C#CCN1c2ccccc2C(=O)N2CCc3c([nH]c4ccccc34)C21 (stereo not drawn)	6.68	6.19	5.91	5.82	5.92	6.07	5.82										
